From patent US20220220128A1, “HETEROCYCLIC COMPOUNDS AS KINASE INHIBITORS, COMPOSITIONS COMPRISING THE HETEROCYCLIC COMPOUND, AND METHODS OF USE THEREOF” (JS Innopharm (Shanghai) Ltd, priority 2019, published 2022)

Experiments:
BAF3-KIF5B-RET cells = molecular target: T1, BAF3-KIF5B-RET cells (Homo sapiens, UniProt P07949); assay: BAF3-KIF5B-RET Cell proliferation assay (CellTiter-Glo, 72 hours); type: cell-based; settings: growth inhibition, read-out: BA/F3-KIF5B-RET Cellular activity
T1 construct: fused on or other part: P33176 (Kinesin-1 heavy chain)
Procedure: Compounds disclosed herein were tested for the inhibition of RET by a cancer cell proliferation assay commonly known as CellTiter-Glo assay. In this assay, a complete media was prepared by adding 10% fetal bovine serum to RPMI-1640 medium (Life technology) for BAF3-FIF5B-RET cells. BAF3-KIF5B-RET cells were added to each of 88 wells of a 96 well plate at a seeding density of 2,000 cells/well/95 μL. The cells were allowed to attach to the plate by incubating at 37° C. for 24 hours. The compound was dissolved in DMSO (SIGMA). A solution of test compound was prepared in complete media by serial dilution to obtain the following concentrations: 20 μM, 6.67 μM, 2.22 μM, 0.74 μM, 0.25 μM, 0.082 μM, 0.027 μM, 0.0091 μM and 0.0030 μM. The test compound solution (5 μL) was added to each of 80 cell-containing wells. The final concentrations of the compound were following: 1 μM, 0.33 μM, 0.11 μM, 0.037 μM, 0.012 μM, 0.0041 μM, 0.0014 μM, 0.00046 μM and 0.00015 μM. The final concentration of DMSO is 0.1%. To the 8 remaining cell-containing wells, only complete media (containing 0.1% DMSO) was added to form a control group in order to measure maximal proliferation. To the remaining 8 empty wells, complete media was added to for a vehicle control group in order to measure background. The plates were incubated at 37° C. for 72 hours. 50 μl of CellTiter-Glo® Reagent was added to each well. Mix contents for 2 minutes on an orbital shaker to induce cell lysis. Incubate at room temperature for 10 minutes to stabilize luminescent signal. Record luminescence on Paradigm. Cell viability (CV %) was calculated relative to vehicle (DMSO) treated control wells. The IC50 was calculated using GraphPad Prism.

human RET kinase = molecular target: T2, human RET kinase (Homo sapiens, UniProt P07949); assay: RET Kinase Assay (LanthaScreen TR-FRET enzymatic assay); type: biochemical; settings: 7 nM RET, 23 μM ATP
T2 construct: purchased Carna 08-159
Summary of the method: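 TR-FRET enzymatic read-out using 23 μM ATP, 3 μM FAM-P2 substrate and 7 nM human RET, after 15-min compound pretreatment at room temperature and a 1 h reaction at 28° C in HEPES pH 7.5 buffer. Percent of DMSO control fitted to nonlinear sigmoid curves for IC50.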

T2 sequence (P07949 29-1114): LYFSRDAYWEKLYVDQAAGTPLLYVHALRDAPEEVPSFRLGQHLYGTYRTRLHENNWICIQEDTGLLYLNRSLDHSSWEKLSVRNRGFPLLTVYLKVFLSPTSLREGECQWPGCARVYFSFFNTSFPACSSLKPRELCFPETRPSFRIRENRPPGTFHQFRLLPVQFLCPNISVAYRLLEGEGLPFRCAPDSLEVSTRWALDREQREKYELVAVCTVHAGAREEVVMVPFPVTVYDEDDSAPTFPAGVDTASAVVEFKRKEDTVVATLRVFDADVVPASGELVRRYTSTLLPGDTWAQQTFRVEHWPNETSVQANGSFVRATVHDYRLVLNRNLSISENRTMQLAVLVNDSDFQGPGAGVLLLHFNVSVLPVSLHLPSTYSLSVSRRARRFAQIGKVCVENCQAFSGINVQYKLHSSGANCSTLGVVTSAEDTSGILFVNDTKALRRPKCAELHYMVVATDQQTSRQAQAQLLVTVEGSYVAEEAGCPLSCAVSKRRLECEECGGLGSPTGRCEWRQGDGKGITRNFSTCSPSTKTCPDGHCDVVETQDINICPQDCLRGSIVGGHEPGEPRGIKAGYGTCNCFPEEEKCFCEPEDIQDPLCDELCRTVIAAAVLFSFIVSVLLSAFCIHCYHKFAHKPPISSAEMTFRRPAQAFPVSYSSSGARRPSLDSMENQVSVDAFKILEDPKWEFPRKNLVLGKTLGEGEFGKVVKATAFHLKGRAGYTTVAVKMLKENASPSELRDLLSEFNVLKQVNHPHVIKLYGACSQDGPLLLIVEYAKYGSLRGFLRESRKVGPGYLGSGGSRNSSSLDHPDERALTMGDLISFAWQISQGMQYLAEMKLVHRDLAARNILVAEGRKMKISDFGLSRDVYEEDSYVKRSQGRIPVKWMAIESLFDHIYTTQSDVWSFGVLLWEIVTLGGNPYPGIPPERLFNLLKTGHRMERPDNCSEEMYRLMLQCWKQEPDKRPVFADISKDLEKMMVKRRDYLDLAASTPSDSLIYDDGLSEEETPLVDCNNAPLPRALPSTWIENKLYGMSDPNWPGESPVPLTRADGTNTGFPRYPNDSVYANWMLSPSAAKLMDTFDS
T1 sequence (P07949 whole entry, change not shown, the tested form may be a part): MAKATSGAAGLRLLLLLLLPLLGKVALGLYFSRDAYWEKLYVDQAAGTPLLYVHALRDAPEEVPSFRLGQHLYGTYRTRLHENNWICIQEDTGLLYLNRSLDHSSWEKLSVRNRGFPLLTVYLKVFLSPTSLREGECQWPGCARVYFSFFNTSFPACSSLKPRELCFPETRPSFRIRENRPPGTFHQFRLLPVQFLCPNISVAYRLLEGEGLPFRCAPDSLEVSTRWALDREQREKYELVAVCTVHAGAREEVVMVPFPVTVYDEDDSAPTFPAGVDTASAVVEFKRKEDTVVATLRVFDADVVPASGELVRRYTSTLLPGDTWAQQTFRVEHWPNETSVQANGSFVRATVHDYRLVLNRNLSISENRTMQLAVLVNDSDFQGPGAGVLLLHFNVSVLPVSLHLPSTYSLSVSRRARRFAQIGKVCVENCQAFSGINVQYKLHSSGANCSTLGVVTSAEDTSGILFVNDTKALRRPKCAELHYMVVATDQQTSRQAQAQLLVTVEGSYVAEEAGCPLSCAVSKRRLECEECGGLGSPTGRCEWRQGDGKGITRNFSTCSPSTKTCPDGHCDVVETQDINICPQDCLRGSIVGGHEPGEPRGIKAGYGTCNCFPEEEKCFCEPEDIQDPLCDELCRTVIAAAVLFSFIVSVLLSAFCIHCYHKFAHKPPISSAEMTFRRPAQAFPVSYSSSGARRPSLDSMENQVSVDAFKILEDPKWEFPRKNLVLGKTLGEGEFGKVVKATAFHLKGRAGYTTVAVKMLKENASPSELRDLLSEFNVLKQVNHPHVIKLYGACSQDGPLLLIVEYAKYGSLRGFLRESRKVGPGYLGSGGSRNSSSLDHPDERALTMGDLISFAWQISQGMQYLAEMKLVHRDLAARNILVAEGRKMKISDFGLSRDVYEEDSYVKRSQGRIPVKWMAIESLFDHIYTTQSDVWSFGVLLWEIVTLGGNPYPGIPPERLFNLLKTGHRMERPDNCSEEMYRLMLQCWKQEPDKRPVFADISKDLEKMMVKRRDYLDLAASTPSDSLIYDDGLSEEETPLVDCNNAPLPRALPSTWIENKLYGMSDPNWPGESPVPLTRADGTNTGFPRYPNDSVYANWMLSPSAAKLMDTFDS

Compound: COc1ccc(CN2[C@@H]3CC[C@H]2[C@H]2CN(c4ccc(-c5cc(-c6cnn(C)c6)cn6ncc(C#N)c56)cn4)C[C@H]23)cn1 [Example 118, 4-(6-((3aR,4S,7R,7aS)-8-((6-methoxypyridin-3-yl)methyl)hexahydro-1H-4,7-epiminoisoindol-2(3H)-yl)pyridin-3-yl)-6-(1-methyl-1H-pyrazol-4-yl)pyrazolo[1,5-a]pyridine-3-carbonitrile]
- GI50 (BAF3-KIF5B-RET cells): 10 to 50 nM
- IC50 (human RET kinase): ≤ 10 nM

Compound: COc1ccc(C(=O)NC23CC4CC(C2)N(c2ccc(-c5cc(-c6cnn(C)c6)cn6ncc(C#N)c56)cn2)C(C4)C3)cn1 [Example 188, N-((1R,3S,5s,7s)-2-(5-(3-cyano-6-(1-methyl-1H-pyrazol-4-yl)pyrazolo[1,5-a]pyridin-4-yl)pyridin-2-yl)-2-azaadainantan-5-yl)-6-methoxynicotinamide]
- GI50 (BAF3-KIF5B-RET cells): ≤ 10 nM
- IC50 (human RET kinase): ≤ 10 nM

Compound: CCOc1cc(-c2ccc(N3C4CC5CC3CC(NC(=O)c3ccc(OC)nc3)(C5)C4)nc2)c2c(C#N)cnn2c1 [Example 139, N-((1R,3S,5s,7s)-2-(5-(3-cyano-6-ethoxypyrazolo[1,5-a]pyridin-4-yl)pyridin-2-yl)-2-azaadamantan-5-yl)-6-methoxynicotinamide]
- GI50 (BAF3-KIF5B-RET cells): 50 to 100 nM
- IC50 (human RET kinase): ≤ 10 nM

Compound: Cn1ccc(-c2cc(-c3ccc(N4C[C@@H]5C[C@@](O)(Cc6ccccn6)C[C@@H]5C4)nc3)c3c(C#N)cnn3c2)n1 [Example 105, 4-(6-((3aR,5r,6aS)-5-hydroxy-5-(pyridin-2-ylmethyl)hexahydrocyclopenta[c]pyrrol-2(1H)-yl)pyridin-3-yl)-6-(1-methyl-1H-pyrazol-3-yl)pyrazolo[1,5-a]pyridine-3-carbonitrile]
- GI50 (BAF3-KIF5B-RET cells): 10 to 50 nM
- IC50 (human RET kinase): ≤ 10 nM

Compound: COc1cccc(C(=O)N[C@]2(C)C[C@H]3CN(c4cnc(-c5cc(-c6cnn(C)c6)cn6ncc(C#N)c56)cn4)C[C@H]3C2)n1 [Example 146, N-((3aR,5s,6aS)-2-(5-(3-cyano-6-(1-methyl-1H-pyrazol-4-yl)pyrazolo[1,5-a]pyridin-4-yl)pyrazin-2-yl)-5-methyloctahydrocyclopenta[c]pyrrol-5-yl)-6-methoxypicolinamide]
- GI50 (BAF3-KIF5B-RET cells): ≤ 10 nM
- IC50 (human RET kinase): ≤ 10 nM

Compound: Cn1cc(-c2cc(-c3cnc(N4C5CC6CC4CC(N)(C6)C5)cn3)c3c(C#N)cnn3c2)cn1 [Example 108, 4-(5-((1R,3S,5s,7s)-5-amino-2-azaadamantan-2-yl)pyrazin-2-yl)-6-(1-methyl-1H-pyrazol-4-yl)pyrazolo[1,5-a]pyridine-3-carbonitrile]
- GI50 (BAF3-KIF5B-RET cells): 10 to 50 nM
- IC50 (human RET kinase): ≤ 10 nM

Compound: Cn1cc(-c2cc(-c3ccc(N4C[C@@H]5[C@@H](CNC(=O)c6ccnc(C(F)(F)F)c6)[C@@H]5C4)nc3)c3c(C#N)cnn3c2)cn1 [Example 196, N-(((1R,5S,6s)-3-(5-(3-cyano-6-(1-methyl-1H-pyrazol-4-yl)pyrazolo[1,5-a]pyridin-4-yl)pyridin-2-yl)-3-azabicyclo[3.1.0]hexan-6-yl)methyl)-2-(trifluoromethyl)isonicotinamide]
- GI50 (BAF3-KIF5B-RET cells): 50 to 100 nM
- IC50 (human RET kinase): ≤ 10 nM

Compound: COc1cncc(C(=O)N[C@]2(C)C[C@H]3CN(c4cnc(-c5cc(-c6cnn(C)c6)cn6ncc(C#N)c56)cn4)C[C@H]3C2)c1 [Example 148, N-((3aR,5s,6aS)-2-(5-(3-cyano-6-(1-methyl-1H-pyrazol-4-yl)pyrazolo[1,5-a]pyridin-4-yl)pyrazin-2-yl)-5-methyloctahydrocyclopenta[c]pyrrol-5-yl)-5-methoxynicotinamide]
- GI50 (BAF3-KIF5B-RET cells): ≤ 10 nM
- IC50 (human RET kinase): ≤ 10 nM

Compound: COc1ccc(C(=O)NC23CC4CC(C2)N(c2cnc(-c5cc(-c6cnn(C)c6)cn6ncc(C#N)c56)cn2)C(C4)C3)cn1 [Example 165, N-((1R,3S,5s,7s)-2-(5-(3-cyano-6-(1-methyl-1H-pyrazol-4-yl)pyrazolo[1,5-a]pyridin-4-yl)pyrazin-2-yl)-2-azaadamantan-5-yl)-6-methoxynicotinamide]
- GI50 (BAF3-KIF5B-RET cells): ≤ 10 nM
- IC50 (human RET kinase): ≤ 10 nM

Compound: CCOc1cc(-c2cnc(N3C4CC5CC3CC(C(=O)Nc3ccc(OC)nc3)(C5)C4)cn2)c2c(C#N)cnn2c1 [Example 170, (1R,3S,5s,7s)-2-(5-(3-cyano-6-ethoxypyrazolo[1,5-a]pyridin-4-yl)pyrazin-2-yl)-N-(6-methoxypyridin-3-yl)-2-azaadamantane-5-carboxamide]
- GI50 (BAF3-KIF5B-RET cells): 10 to 50 nM
- IC50 (human RET kinase): ≤ 10 nM

Compound: CC(C)(O)COc1cc(-c2ccc(N3C[C@@H]4[C@H](C3)[C@H]4C(C)(C)NC(=O)c3ncccc3Cl)nc2)c2c(C#N)cnn2c1 [Example 129, 3-chloro-N-(2-((1R,5S,6r)-3-(5-(3-cyano-6-(2-hydroxy-2-methylpropoxy)pyrazolo[1,5-a]pyridin-4-yl)pyridin-2-yl)-3-azabicyclo[3.1.0]hexan-6-yl)propan-2-yl)picolinamide]
- GI50 (BAF3-KIF5B-RET cells): 50 to 100 nM
- IC50 (human RET kinase): 10 to 50 nM

Compound: CC(C)(O)COc1cc(-c2cnc(N3C[C@@H]4C[C@@](C)(NC(=O)c5c(F)cccc5Cl)C[C@@H]4C3)cn2)c2c(C#N)cnn2c1 [Example 144, 2-chloro-N-((3aR,5s,6aS)-2-(5-(3-cyano-6-(2-hydroxy-2-methylpropoxy)pyrazolo[1,5-a]pyridin-4-yl)pyrazin-2-yl)-5-methyloctahydrocyclopenta[c]pyrrol-5-yl)-6-fluorobenzainide]
- GI50 (BAF3-KIF5B-RET cells): ≤ 10 nM
- IC50 (human RET kinase): ≤ 10 nM

Compound: CC(=O)NC12CC3CC(C1)N(c1cnc(-c4cc(-c5cnn(C)c5)cn5ncc(C#N)c45)cn1)C(C3)C2 [Example 111, N-((1R,3S,5s,7s)-2-(5-(3-cyano-6-(1-methyl-1H-pyrazol-4-yl)pyrazolo[1,5-a]pyridin-4-yl)pyrazin-2-yl)-2-azaadamantan-5-yl)acetamide]
- GI50 (BAF3-KIF5B-RET cells): ≤ 10 nM
- IC50 (human RET kinase): ≤ 10 nM

Compound: COc1cccnc1C(=O)NC[C@@H]1[C@H]2CN(c3ccc(-c4cc(-c5cnn(C)c5)cn5ncc(C#N)c45)cn3)C[C@@H]12 [Example 191, N-(((1R,5S,6s)-3-(5-(3-cyano-6-(1-methyl-1H-pyrazol-4-yl)pyrazolo[1,5-a]pyridin-4-yl)pyridin-2-yl)-3-azabicyclo[3.1.0]hexan-6-yl)methyl)-3-methoxypicolinamide]
- GI50 (BAF3-KIF5B-RET cells): ≤ 10 nM
- IC50 (human RET kinase): ≤ 10 nM

Compound: COc1ccc(NC(=O)C23CC4CC(C2)N(c2ccc(-c5cc(OCC(C)(C)O)cn6ncc(C#N)c56)cn2)C(C4)C3)cn1 [Example 133, (1R,3S,5s,7s)-2-(5-(3-cyano-6-(2-hydroxy-2-methylpropoxy)pyrazolo[1,5-a]pyridin-4-yl)pyridin-2-yl)-N-(6-methoxypyridin-3-yl)-2-azaadamantane-5-carboxamide]
- GI50 (BAF3-KIF5B-RET cells): 10 to 50 nM
- IC50 (human RET kinase): ≤ 10 nM

Compound: COc1ccc(NC(=O)C23CC4CC(C2)N(c2cnc(-c5cc(OCC(C)(C)O)cn6ncc(C#N)c56)cn2)C(C4)C3)cn1 [Example 171, (1R,3S,5s,7s)-2-(5-(3-cyano-6-(2-hydroxy-2-methylpropoxy)pyrazolo[1,5-a]pyridin-4-yl)pyrazin-2-yl)-N-(6-methoxypyridin-3-yl)-2-azaadamantane-5-carboxamide]
- GI50 (BAF3-KIF5B-RET cells): 10 to 50 nM
- IC50 (human RET kinase): ≤ 10 nM

Compound: CCOc1cc(-c2cnc(N3C4CC5CC3CC(NC(=O)c3ccc(OC)nc3)(C5)C4)cn2)c2c(C#N)cnn2c1 [Example 167, N-((1R,3S,5s,7s)-2-(5-(3-cyano-6-cthoxypyrazolo[1,5-a]pyridin-4-yl)pyrazin-2-yl)-2-azaadamantan-5-yl)-6-methoxynicotinamide]
- GI50 (BAF3-KIF5B-RET cells): 50 to 100 nM
- IC50 (human RET kinase): ≤ 10 nM
